Results from patent US20100210538A1, “THERAPEUTIC USES OF INTERMEDIN 47 AND 53 PEPTIDES” (priority 2007, published 2010).
Ends that are not written are not given here.

Legend:
HCMV strain AD169 = experiment: HCMV plaque formation assay in MRC-5 cells; conditions: for inhibition of HCMV plaque formation as compared to the virus control experiment: 10 micrograms per ml, 7-10 days
Description: Cells were split twic a week 1:2.
Ganciclovir was used as positive control.

HUVEC = experiment: Endothelial tube formation assay; type: cell-based, human; conditions: 10 micrograms per ml, 20 hours
Description: Positive control was vehicle only. […] Raw data were expressed as average tubule lenghs in pixels±standard deviation.

[1] = tested on: Primary Human endothelial cells (HUVEC); experiment: Endothelial cell migration assay; type: cell-based; conditions: 10 micrograms per ml, 22 hours
Procedure: Thereafter, designated concentration of testing peptides—10 micrograms per ml—was added in duplicate wells.

RAW 264.7 cells = experiment: Phagocytosis assay (Fluorescein-labeled Escherichia coli, flow cytometry); conditions: 10 micrograms per ml, Fluorescein-labeled E. coli, 60 min
[2] = tested on: spleen cells of Ovalbumin-immunized Balb/c mice; experiment: Th1/Th2 cytokine profiling assay (Mouse Th1/Th2 Cytokine CBA Kit); type: cell-based; conditions: 10 micrograms per ml; Ovalbumin restimulation, 72 hours
Description: The Balb/c mice (originated in 1923, it is a popular strain and is used in many different research disciplines. Also classified as an inbred from the production of 20 or more successive brother-sister matings, the Balb/c mouse is albino and small in size) were immunized on Days 1, 15, and 29 with Ovalbumin (Ovalbumin is the main protein found in egg white, commonly used to stimulate an immunological reaction in test animals) in PBS (5 micrograms/injection). On day 50, spleens of the mice were harvested (3 weeks after last boost with Ovalbumin). Cells were cultured (2×10^5/well in triplicate) and incubated with culture medium or test peptides—10 micrograms per ml—for 30 min. Thereafter, additional Ovalbumin was added to the cells at 10 micrograms/ml for in vitro restimulation of the cells. 72 hours later, cell supernatants were harvested and assayed using the Becton Dickinson Mouse Th1/Th2 Cytokine CBA Kit.

[3] = tested on: hepatitis B virus (HBV) ayw strain; experiment: HBV assay, secreted HBV DNA by TaqMan PCR in HepG2-2.2.15 cells; type: cell-based; conditions: 10 micrograms per ml, six days
Procedure: HepG2-2.2.15 is a stable cell line containing the hepatitis B virus (HBV) ayw strain genome (ATCC Cat. No. CRL-11997). […] After 16-24 hours the confluent monolayer of HepG2-2.2.15 cells was washed and the medium was replaced with complete medium containing test peptides-10 micrograms per ml—in duplicate. […] Three days later the culture medium was replaced with fresh medium containing the peptides. Six days following the initial administration of the peptides, the cell culture supernatants was collected, treated with pronase and DNAse and then used in a real-time quantitative TaqMan PCR assay. The PCR-amplified HBV DNA was detected in real-time by monitoring increases in fluorescence signals that result from the exonucleolytic degradation of a quenched fluorescence probe molecule that hybridizes to the mplified HBV DNA. For each PCR amplification, a standard curve was simultaneously generated using dilutions of purified HBV DNA. Antiviral activity was calculated from the reduction in HBV DNA levels (% virus control). A novel dye uptake assay was then employed to measure cell viability, which is used to calculate toxicity (% cell control).

Row | Molecule | antiviral activity of positive control compounds (HIV-1) (HIV-1IIIB) | inhibition of the tube formation of human endothelial cells (HUVEC) | induction of phagocytosis as compared to the control experiment (RAW 264.7 cells) | inhibition of HCMV plaque formation as compared to the virus control experiment (HCMV strain AD169) | IFNγ spleen cells; TH1 response (% of control) [2] | IL-2 spleen cells (% of control) [2] | IL-4 spleen cells; TH2 response (% of control) [2] | IL-5 spleen cells; TH2 response (% of control) [2] | TNF-a spleen cells; TH1 response (% of control) [2] | other results
1 | Cc1cn([C@H]2C[C@H](N=[N+]=[N-])[C@@H](CO)O2)c(=O)[nH]c1=O [AZT] | expected levels of antiviral activity |  |  |  |  |  |  |  |  | 
2 | Nc1nc(O)c2ncn(COC(CO)CO)c2n1 [Ganciclovir, reference compound] |  |  |  |  |  |  |  |  |  | antiviral activity of positive control compound (HCMV) (HCMV strain AD169; positive control, HCMV AD169): expected levels of antiviral activity
3 | CC(C)(C)NC(=O)[C@@H]1CN(Cc2cccnc2)CCN1C[C@@H](O)C[C@@H](Cc1ccccc1)C(=O)N[C@H]1c2ccccc2C[C@H]1O [indinavir] | expected levels of antiviral activity |  |  |  |  |  |  |  |  | 
4 | His-Ser-Gly-Pro-Arg-Arg-Thr-Gln-Ala-Gln-Leu-Leu-Arg-Val-Gly-Cys-Val-Leu-Gly-Thr-Cys-Gln-Val-Gln-Asn-Leu-Ser-His-Arg-Leu-Trp-Gln-Leu-Met-Gly-Pro-Ala-Gly-Arg-Gln-Asp-Ser-Ala-Pro-Val-Asp-Pro-Ser-Ser-Pro-His-Ser-Tyr-NH2 (HSGPRRTQAQLLRVGCVLGTCQVQNLSHRLWQLMGPAGRQDSAPVDPSSPHSY-NH2; cysteine pairing not given here) [peptide 1] |  | 19% | did not induce phagocytosis | 1.8% | 21.7 % of control | 75.6 % of control | 166.9 % of control | 34.5 % of control | 70.0 % of control | inhibition of the migration of endothelial cells [1]: 8%
5 | Thr-Gln-Ala-Gln-Leu-Leu-Arg-Val-Gly-Cys-Val-Leu-Gly-Thr-Cys-Gln-Val-Gln-Asn-Leu-Ser-His-Arg-Leu-Trp-Gln-Leu-Met-Gly-Pro-Ala-Gly-Arg-Gln-Asp-Ser-Ala-Pro-Val-Asp-Pro-Ser-Ser-Pro-His-Ser-Tyr-NH2 [peptide 2] |  | 12% | 34.3% | 0.7% | 19.1 % of control | 98.9 % of control | 0.0 % of control | 17.9 % of control | 66.7 % of control | induction of the migration of human endothelial cells [1]: 19%; inhibition of HBV replication as compared to the virus control infection [3]: no effect
